Laboratory results as given in ChEMBL document CHEMBL2203238, “Hit to Lead optimization of a novel class of squarate-containing polo-like kinases inhibitors” (Bioorg Med Chem Lett, 2012).
Calls of active or inactive are those of the source. The calls are words filed in the database; no cut-off is given here.

Key:
[1] = target: Serine/threonine-protein kinase PLK1 (Homo sapiens, UniProt P53350); test: Inhibition of recombinant GST-tagged PLK1 using biotin-ahx-AKMETTFYDDALNASFLPSEKKK-amide as substrate after 30 mins by scintillation counting analysis in presence of gamma-[33P]ATP
Serine/threonine-protein kinase PLK1, sequence (P53350 whole entry): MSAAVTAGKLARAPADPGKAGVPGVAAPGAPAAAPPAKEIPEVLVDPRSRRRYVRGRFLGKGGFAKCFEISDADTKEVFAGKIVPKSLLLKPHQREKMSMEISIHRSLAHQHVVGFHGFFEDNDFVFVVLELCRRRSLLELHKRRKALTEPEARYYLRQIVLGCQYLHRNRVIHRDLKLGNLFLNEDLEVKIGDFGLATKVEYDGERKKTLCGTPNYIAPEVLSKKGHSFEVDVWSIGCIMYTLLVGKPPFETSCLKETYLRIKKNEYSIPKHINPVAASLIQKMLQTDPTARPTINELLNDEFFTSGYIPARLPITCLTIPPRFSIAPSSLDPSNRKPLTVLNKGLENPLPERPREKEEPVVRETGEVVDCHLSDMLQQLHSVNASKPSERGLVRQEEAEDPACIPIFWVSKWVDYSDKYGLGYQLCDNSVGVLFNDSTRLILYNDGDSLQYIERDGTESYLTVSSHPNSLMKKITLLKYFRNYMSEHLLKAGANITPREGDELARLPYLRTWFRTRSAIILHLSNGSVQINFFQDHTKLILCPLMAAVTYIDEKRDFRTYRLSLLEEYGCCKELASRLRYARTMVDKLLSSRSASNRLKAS

[2] = Oral bioavailability in mouse; type: ADME, organism-based; conditions: in vivo
[3] = Half life in mouse; type: ADME, organism-based; conditions: in vivo
MIA PaCa-2 = test: Antitumor activity against human MIAPaCa2 cells xenografted in SCID mouse assessed as tumor growth inhibition at 120 mg/kg/day, ip measured on day 21 to day 44 relative to vehicle-treated control; type: functional, organism-based

Structure (SMILES)	Ki [1] [nM]	further results
CC(C)(C)Nc1c(Nc2ccnc(Nc3ccc(-c4cn[nH]c4)cc3)n2)c(=O)c1=O	10	–
C[C@@H](Nc1c(Nc2ccnc(Nc3ccc4ccccc4c3)n2)c(=O)c1=O)C(C)(C)C	85	–
CC(C)C(C)Nc1c(Nc2ccnc(Nc3ccc(-c4ccccc4)cc3)n2)c(=O)c1=O (centres undefined)	166	–
O=c1c(Nc2ccc(OC(F)(F)F)cc2)c(Nc2ccnc(Nc3ccc(-c4ccccc4)cc3)n2)c1=O	17600	–
CC(C)(C)Nc1c(Nc2ccnc(Nc3ccc(-c4ccccc4)cc3)n2)c(=O)c1=O	14	–
C[C@@H](Nc1c(Nc2ccnc(Nc3ccncc3)n2)c(=O)c1=O)C(C)(C)C	> 44000	–
C[C@@H](Nc1nccc(Nc2c(N[C@H](C)C(C)(C)C)c(=O)c2=O)n1)c1ccccc1	9930	–
O=c1c(NCC2CC2)c(Nc2ccnc(Nc3ccc(-c4ccccc4)cc3)n2)c1=O	14000	–
C[C@@H](Nc1c(Nc2ccnc(Nc3ccc(-c4ccccc4)cc3)n2)c(=O)c1=O)C(C)(C)C	75	–
C[C@@H](Nc1c(Nc2ccnc(Nc3ccc(F)cc3)n2)c(=O)c1=O)C(C)(C)C	232	–
C[C@@H](Nc1c(Nc2ccnc(Nc3ccc(Cl)cc3)n2)c(=O)c1=O)C(C)(C)C	272	–
CC(C)(C)Nc1c(Nc2ccnc(Nc3ccc4c(c3)[nH]c3ccccc34)n2)c(=O)c1=O	10	–
CC(C)CC(C)Nc1c(Nc2ccnc(Nc3ccc(-c4ccccc4)cc3)n2)c(=O)c1=O (centres undefined)	1180	–
CC(C)(C)Nc1c(Nc2ccnc(Nc3ccc(N4CCOCC4)cc3)n2)c(=O)c1=O	175	–
CC(C)(C)Nc1c(Nc2ccnc(Nc3ccc4c(c3)CCO4)n2)c(=O)c1=O	22	–
C[C@@H](Nc1c(Nc2ccnc(Nc3ccc(Br)cc3)n2)c(=O)c1=O)C(C)(C)C	354	–
CC(C)(C)CNc1c(Nc2ccnc(Nc3ccc(-c4ccccc4)cc3)n2)c(=O)c1=O	1800	–
C[C@@H](Nc1c(Nc2ccnc(Nc3ccccc3)n2)c(=O)c1=O)C(C)(C)C	465	–
Cc1ccc(Nc2nccc(Nc3c(N[C@H](C)C(C)(C)C)c(=O)c3=O)n2)cc1	1010	–
O=c1c(NCCN2CCOCC2)c(Nc2ccnc(Nc3ccc(-c4ccccc4)cc3)n2)c1=O	8530	–
C[C@@H](Nc1c(Nc2ccnc(Nc3cccc4ccccc34)n2)c(=O)c1=O)C(C)(C)C	315	–
CC(C)(C)Nc1c(Nc2ccnc(Nc3ccc4c(c3)Cc3ccccc3-4)n2)c(=O)c1=O	4	–
CC(=O)N1CCc2cc(Nc3nccc(Nc4c(NC(C)(C)C)c(=O)c4=O)n3)ccc21	20	–
CC(C)(C)Nc1c(Nc2ccnc(Nc3ccc(-c4cccnc4)cc3)n2)c(=O)c1=O	28	–

Structure (SMILES)	Ki [1] [nM]	further results
COc1ccc(Nc2nccc(Nc3c(N[C@H](C)C(C)(C)C)c(=O)c3=O)n2)cc1	141	–
C[C@@H](Nc1c(Nc2ccncc2)c(=O)c1=O)C(C)(C)C	–	bioavailability [2]: 54%; half-life [3]: 23.4 min
COc1cc(Nc2nccc(Nc3c(N[C@H](C)C(C)(C)C)c(=O)c3=O)n2)cc(OC)c1OC	234	–
CCC(C)(C)Nc1c(Nc2ccnc(Nc3ccc(-c4ccccc4)cc3)n2)c(=O)c1=O	13	–
CC(C)(C)Nc1c(Nc2ccnc(Nc3ccc4[nH]ncc4c3)n2)c(=O)c1=O	17	–
C[C@@H](Nc1c(Nc2ccccc2)c(=O)c1=O)C(C)(C)C	32000	–
COc1ccc(Nc2nccc(Nc3c(N[C@H](C)C(C)(C)C)c(=O)c3=O)n2)c(OC)c1	771	–
COc1cc(Nc2ncc(C#N)c(Nc3c(N[C@H](C)C(C)(C)C)c(=O)c3=O)n2)cc(OC)c1OC	7720	–
C[C@@H](Nc1c(Nc2ccnc(Nc3ccc(OC(F)(F)F)cc3)n2)c(=O)c1=O)C(C)(C)C	610	–
CC(C)(C)Nc1c(Nc2ccnc(Nc3ccc(-c4ccccn4)cc3)n2)c(=O)c1=O	82	–
C[C@@H](Nc1c(Nc2ccnc(Nc3ccc(Oc4ccccc4)cc3)n2)c(=O)c1=O)C(C)(C)C	276	–
C[C@@H](Nc1c(Nc2ccnc(Nc3cccnc3)n2)c(=O)c1=O)C(C)(C)C	> 44000	–
CC(C)(C)Nc1c(Nc2nc(Nc3ccc4c(c3)Cc3ccccc3-4)ncc2F)c(=O)c1=O	> 8800	–
Nc1ccn([C@@H]2O[C@H](CO)[C@@H](O)C2(F)F)c(=O)n1	–	TGI (MIA PaCa-2): Active
CC(C)(C)Nc1c(Nc2ccnc(Nc3ccc(-c4csnn4)cc3)n2)c(=O)c1=O	15	–
C[C@@H](Nc1c(Nc2cccnc2)c(=O)c1=O)C(C)(C)C	> 44000	–
CC(Nc1c(Nc2ccnc(Nc3ccc(-c4ccccc4)cc3)n2)c(=O)c1=O)c1ccccc1 (centres undefined)	24900	–
CC(C)(C)Nc1c(Nc2ccnc(Nc3ccc4ncsc4c3)n2)c(=O)c1=O	43	–
C[C@@H](Nc1c(Nc2ccnc(Nc3ccccn3)n2)c(=O)c1=O)C(C)(C)C	40800	–
C[C@H](Nc1c(Nc2ccnc(Nc3ccc(-c4ccccc4)cc3)n2)c(=O)c1=O)C(C)(C)C	47	–
C[C@@H](Nc1c(Nc2ccnc(Nc3ccc4c(c3)OCCO4)n2)c(=O)c1=O)C(C)(C)C	255	–
C[C@@H](Nc1c(Nc2ccnc(Nc3cccc(-c4ccccc4)c3)n2)c(=O)c1=O)C(C)(C)C	333	–
C[C@@H](Nc1c(Nc2ccnc(Nc3ccc4c(c3)OCO4)n2)c(=O)c1=O)C(C)(C)C	165	–
C[C@@H](Nc1c(Nc2ccnc(Nc3ccc4c(c3)Cc3ccccc3-4)n2)c(=O)c1=O)C(C)(C)C	41	–
